Assay results reported in publication PMC5271370, “A High-Content Assay Enables the Automated Screening and Identification of Small Molecules with Specific ALDH1A1-Inhibitory Activity” (PLoS ONE, 2017).
Read-outs that look alike come from different tables or passages of the source.

Key:
Human ALDH1A1 = target: T1, Human ALDH1A1 (Homo sapiens, UniProt P00352); assay: 1,536-well enzymatic assay (NADH fluorescence), ALDH1A1; format: biochemical; details: validation set; 20 nM enzyme, NAD+ and propionaldehyde; read-out: Biochemical IC50 ALDH1A1
T1 construct: made in house
T1 sequence (P00352 1-501): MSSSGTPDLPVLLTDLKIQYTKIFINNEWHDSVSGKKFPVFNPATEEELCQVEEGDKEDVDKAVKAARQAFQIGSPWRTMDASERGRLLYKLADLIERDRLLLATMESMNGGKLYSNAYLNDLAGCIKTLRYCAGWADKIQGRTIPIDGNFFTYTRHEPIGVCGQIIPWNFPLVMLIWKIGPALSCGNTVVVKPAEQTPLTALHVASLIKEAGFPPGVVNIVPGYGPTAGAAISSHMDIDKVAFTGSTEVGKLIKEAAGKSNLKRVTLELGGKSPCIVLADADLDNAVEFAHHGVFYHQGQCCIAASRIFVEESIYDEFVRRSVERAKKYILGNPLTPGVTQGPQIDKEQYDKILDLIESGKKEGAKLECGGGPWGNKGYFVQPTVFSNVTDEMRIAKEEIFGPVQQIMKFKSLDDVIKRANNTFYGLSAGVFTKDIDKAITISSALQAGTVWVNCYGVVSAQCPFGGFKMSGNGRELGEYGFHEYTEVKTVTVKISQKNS
From the text: To validate our optimized assay, we assembled a set of 20 previously reported ALDH inhibitors, with varying degrees of target specificity (Table 1 and S4 Fig). […] Briefly, the assay measures the dehydrogenase activity of recombinant human ALDH1A1, ALDH1A2, ALDH1A3, ALDH2 or ALDH3A1 using NAD(P)^+ and either propionaldehyde or benzaldehyde as substrates. An orthogonal resorufin-based assay format was also run with isolated ALDH1A1 to rule out potential false positives due to intrinsic compound fluorescence.
Human ALDH1A1 and ALDH3A1 were expressed and purified as described elsewhere. Human ALDH2 was purchased from Abcam (ab87415). Human ALDH1A2 and ALDH1A3 were purchased from MyBioSource (MBS1005929; San Diego, CA) and ThermoFisher (11636H07E50), respectively. The inhibitory activity of compounds against ALDHs was measured according to protocols described previously. Briefly, 3 μL of enzyme (final concentrations of 20 nM for ALDH1A1, 50 nM for ALDH1A2, 50 nM for ALDH1A3, 75 nM for ALDH2 and 5 nM for ALDH3A1) in assay buffer (100 mM HEPES pH 7.5 with 0.01% Tween 20) were dispensed into a 1,536-well solid-bottom black plate (Greiner Bio One, Monroe, NC). […] Samples were incubated (room temperature, protected from light) for 15 minutes followed by a 1 μL substrate addition of NAD^+ and Propionaldehyde (final concentrations of 1 mM and 80 μM, respectively) for ALDH1A1, 1A2, 1A3, and ALDH2 or NADP^+ and benzaldehyde (final concentrations of 1 mM and 200 μM, respectively) for ALDH3A1. Plates were centrifuged at 1,000 rpm for 15 seconds, then read in kinetic mode on a ViewLux High-throughput CCD imager (PerkinElmer, Waltham, MA) equipped with standard UV fluorescence optics (340 nm excitation, 450 nm emission) for 5 (ALDH1A1, ALDH1A2, ALDH2, ALDH3A1) or 30 (ALDH1A3) minutes. The change in fluorescence intensity over the 5- or 30-minute reaction period was normalized against no-inhibitor and no-enzyme controls and the resulting percent inhibition data were fitted to a 4-parameter Hill equation. Bay-11 7085 was used as intraplate control. To account for artifacts due to intrinsic compound fluorescence in the above spectrum, compounds were also tested in an orthogonal resorufin assay format with optics of excitation 525 nm/emission 598 nm as described before. The same parameters as the NADH assay were used for the resorufin assay, with the addition of (final) 133 μg/mL diaphorase and 37 μM resazurin to the assay solution. Same controls were used in both formats.

MIA PaCa-2 cells = assay: 1,536-well high-content imaging ALDEFLUOR assay, MIA PaCa-2; format: cell-based, human; details: semi-automated; active = high quality concentration response curve and >50% efficacy; up to 45.8 μM
Method: (§1) To miniaturize the assay into a 1536-well format amenable to qHTS, we chose MIA PaCa-2 and HT-29 because of their high levels of ALDH1A1(Fig 1A). Utilizing the 8-step protocol described by Ming et al. as a starting point, we developed a “semi-automated” protocol described in S1 Table. Briefly, we plated 1,000 cells in a volume of 5 μL/well into black-optical quality clear bottom 1,536-well plates, and allowed cells to attach overnight. Culture media was subsequently removed by inverting and centrifuging plates using a plate adaptor as previously described and replaced with 5 μL of a solution of either 500 or 100 nM BAAA substrate in ALDEFLUOR buffer. To identify cells based on nuclear staining, we also included 0.5 nM Hoechst 33342 in the above buffer. […] After incubating the plate for 30 minutes at 37°C, 5% CO2, 85% RH, the remaining substrate was removed by centrifugation as above and replaced with 3 μL of ALDEFLUOR buffer. Fluorescence was subsequently imaged using the IN Cell Analyzer 2200 high-content widefield fluorescence based imager and the resulting images were quantified using the IN Cell Investigator v1.6.2 analysis software (see Experimental Procedures for analysis details).
(§2) The ALDEFLUOR kit was purchased from […] Technologies (Vancouver, Canada; #01700). Cells (5 μL) were dispensed into black, optical quality (cyclic olefin copolymer) clear bottom, medium binding TC treated 1,536-well plates (Aurora Microplates, Whitefish MT) using a Multidrop Combi dispenser (ThermoFisher) and incubated overnight (37°C, 5% CO2, 85% RH). Media was subsequently removed by centrifuging plates upside down using a plate adaptor to collect media. A solution of BAAA substrate ([…] Technologies) and Hoechst 33342 (ThermoFisher, final concentrations of 500 nM and 0.5 nM, respectively) in ALDEFLUOR buffer ([…] Technologies #01700) was dispensed onto cells using a Multidrop Combi followed by immediate transfer (23 nL) of compound or control solutions using a Wako Pin-tool (final percentage of DMSO in the cell plates was 0.5%). Unless otherwise noted, all compounds were assayed as 16-point dilutions spanning a final concentration range of 1.4 nM to […]. […] Cells were incubated for 30 minutes or the indicated amount of time at 37°C, 5% CO2, 85% RH to allow the conversion of BAAA into BAA. Supernatant was subsequently removed by centrifugation as described above, then ALDEFLUOR buffer (3 μl) was dispensed by Multidrop Combi before imaging on an IN Cell 2200 (GE Healthcare).
(§3) The above assay was modified for an online robotic screening system. After cell plating and overnight incubation, 4 μL of media were removed using a 64-tip metal aspirator head on a Wako aspirator station, leaving 1 μL remaining in the well, followed by a 4 μL dispense of BAAA and Hoechst 33342 in ALDEFLUOR buffer, for a final concentration of 500 nM and 0.5 nM, respectively. Immediately following the dispense, 23 nL of compound or control solutions were transferred using a Wako Pin-tool. Cells were incubated for 30 minutes at 37°C, 5% CO2, 85% RH, followed by a 4 μL media removal using the Wako aspirator, and a subsequent 3 μL addition of ALDEFLUOR buffer. Plates were then immediately read on the IN Cell 2200 as described below.
(§4) For images captured on the IN Cell 2200 widefield automated microscope, a 10x 0.45 NA Plan Apo objective lens was used to capture the entire well of the 1,536-well plate using standard DAPI (390/18x, 432/48m) and FITC (475/28x, 525/48m) filter sets at 50 msec and 100 msec exposures, respectively. Images were subsequently analyzed using IN Cell Investigator v1.6.2 analysis software’s canned Multi-Target Analysis algorithm (GE Healthcare). Hoechst stained nuclei were identified using top hat segmentation with a minimum area of 75 μm^2 and sensitivity of 93. […]

HT-29 cells = assay: 1,536-well high-content imaging ALDEFLUOR assay, HT-29; format: cell-based, human
Method: as §1, §2, §3, §4

LN-229 cells = assay: 1,536-well high-content imaging ALDEFLUOR assay, LN-229; format: cell-based, human; details: fully automated assay, Fig 5
Method: We next sought to test if the fully automated high-content assay could be used to detect ALDH1A1-specific inhibitors.
as §2
as §3, with “Cells were incubated for 30 minutes at 37°C, 5% CO2, 85% RH, followed by a 4 μL media removal using the Wako aspirator, and a subsequent 3 μL addition of ALDEFLUOR buffer.” left out
as §4, with “Healthcare).” for “Healthcare). Hoechst stained nuclei were identified using top hat segmentation with a minimum area of 75 μm^2 and sensitivity of 93.”
The same controls were also used for the calculation of the Z’ factor for each assay. The Z’ factor, a measure of assay quality control, was determined as previously described. […] All concentration–response curves were fitted as before and IC50 were calculated with the GraphPad Prism software.

ALDH1A1 = details: reported ALDH target 1A1; read-out: Reported Biochemical IC50, ALDH1A1; cited from earlier work

SMILES | IC50 (Human ALDH1A1) | Activity in ALDEFLUOR assay, MIA PaCa-2 (MIA PaCa-2 cells) | Activity in ALDEFLUOR assay, HT-29 (HT-29 cells; semi-automated, active = high quality concentration response curve and >50% efficacy, up to 45.8 μM) | Inhibition of BAAA turnover in LN-229 (ALDH1A1-negative cells) (LN-229 cells) | IC50 (ALDH1A1) | IC50 (HT-29 cells; fully automated assay, n = 4, read-out: ALDEFLUOR IC50 HT-29 (Fig 5)) | IC50 (HT-29 cells; validation set, semi-automated protocol, 16-point dilution, 1,000 cells/well, 500 nM BAAA, 30 min, read-out: Aldefluor IC50 HT-29)
CCSC(=O)N1CCCCCC1 [Molinate] | 27 µM | tested negative | tested negative |  |  |  | 
CC(C)CCn1c(CN2CCN(C(=O)C3CC3)CC2)nc2c1c(=O)n(C)c(=O)n2C [NCT-501] |  |  |  | inhibited BAAA turnover only in ALDH1A1-expressing cells | […] | 3.3 µM | 4.33 µM
